Literature values, collected in paper PMC7395068, “The evolution of strategies to minimise the risk of human drug-induced liver injury (DILI) in drug discovery and development” (Archives of Toxicology, 2020).
Like-named read-outs stand apart in the source and are kept apart here. Where a SMILES comes first, the peptide text is derived from it. [ ]: non-standard residue; d: D form. d(hArg(Et2)) = CCN=C(NCC)NCCCC[C@@H](N)C(=O)O; hArg(Et2) = CCN=C(NCC)NCCCC[C@H](N)C(=O)O; dPhe(4-Cl) = N[C@H](Cc1ccc(Cl)cc1)C(=O)O; d2Nal = N[C@H](Cc1ccc2ccccc2c1)C(=O)O; d3Pal = N[C@H](Cc1cccnc1)C(=O)O

Conditions: cited from earlier work
[1] = binary in vivo human DILI call, ref Chen 2016
[2] = human DILI, LTKB DILIrank category, ref Chen 2016

SMILES | DILI +VE (5-8), DILI -VE (-4) [1] | DILI severity category [2] | DILI +VE (5-8), DILI -VE (-4) (in vivo) | DILI severity category (in vivo)
Clc1ccc2c(c1)C(c1ccccc1)=NCc1nncn1-2 [estazolam] | -VE | vNo-DILI-Concern | – | –
C[C@]12CC[C@@H]3c4ccc(OC(=O)N(CCCl)CCCl)cc4CC[C@H]3[C@@H]1CC[C@@H]2O [estramustine] | +VE | vMost-DILI-Concern | – | –
CN1CCN(C(=O)O[C@H]2c3nccnc3C(=O)N2c2ccc(Cl)cn2)CC1 [eszopiclone] | -VE | Ambiguous DILI-concern | – | –
CCCCCCCC/C=C\CCCCCCCC(=O)O.NCCO [ethanolamine oleate] | -VE | vNo-DILI-Concern | – | –
CCc1cc(C(N)=S)ccn1 [ethionamide] | +VE | vLess-DILI-Concern | – | –
CCC1(C)CC(=O)NC1=O (stereo not shown) [ethosuximide] | -VE | Ambiguous DILI-concern | – | –
CCOC(=O)c1cncn1[C@H](C)c1ccccc1 [etomidate] | – | – | -VE | vNo-DILI-Concern
C#C[C@]1(O)CC[C@H]2[C@@H]3CCC4=CC(=O)CC[C@@H]4[C@H]3C(=C)C[C@@]21CC [etonogestrel] | -VE | Ambiguous DILI-concern | – | –
Cc1cc(C#N)cc(C)c1Oc1nc(Nc2ccc(C#N)cc2)nc(N)c1Br [etravirine] | +VE | vMost-DILI-Concern | – | –
CO[C@H]1C[C@@H]2CC[C@@H](C)[C@@](O)(O2)C(=O)C(=O)N2CCCC[C@H]2C(=O)O[C@H]([C@H](C)C[C@@H]2CC[C@@H](OCCO)[C@H](OC)C2)CC(=O)[C@H](C)/C=C(\C)[C@@H](O)[C@@H](OC)C(=O)[C@H](C)C[C@H](C)/C=C/C=C/C=C/1C [everolimus] | -VE | Ambiguous DILI-concern | – | –
C/C(=N\O)C(C)NCC(C)(C)CNC(C)/C(C)=N/O (stereo not shown) [exametazime] | -VE | vNo-DILI-Concern | – | –
C=C1C[C@@H]2[C@H](CC[C@]3(C)C(=O)CC[C@@H]23)[C@@]2(C)C=CC(=O)C=C12 [exemestane] | +VE | vMost-DILI-Concern | – | –
O=C(c1cc(O)c(O)c(O)c1)c1ccc(O)c(O)c1O [exifone] | +VE | vMost-DILI-Concern | – | –
CN1CCC(Nc2ncc3ncnc(Nc4ccc(F)c(Cl)c4)c3n2)CC1 [falnidamol] | – | – | +VE | vMost-DILI-Concern
CC(=O)OCC(CCn1cnc2cnc(N)nc21)COC(C)=O [famciclovir] | -VE | Ambiguous DILI-concern | – | –
CC(C)(Oc1ccc(C(=O)c2ccc(Cl)cc2)cc1)C(=O)O [fenofibric acid] | -VE | Ambiguous DILI-concern | – | –
CC(C)C(=O)Oc1ccc(CO)cc1[C@H](CCN(C(C)C)C(C)C)c1ccccc1 [fesoterodine] | -VE | vNo-DILI-Concern | – | –
COc1cccc2c1[C@@H]1CN(CCCCn3c(=O)[nH]c4c(sc5ncc(-c6ccccc6)nc54)c3=O)C[C@@H]1CO2 [fiduxosin] | +VE | vMost-DILI-Concern | – | –
C[C@]12CCC(=O)C=C1CC[C@H]1[C@@H]3CC[C@](O)(C(=O)CO)[C@@]3(C)C[C@H](O)[C@@]12F [fludrocortisone] | -VE | vNo-DILI-Concern | – | –
O=C1OC2(c3ccc(O)cc3Oc3cc(O)ccc32)c2ccccc21 [fluorescein] | -VE | vNo-DILI-Concern | – | –
OCCN1CCN(CCCN2c3ccccc3Sc3ccc(C(F)(F)F)cc32)CC1 [fluphenazine] | -VE | Ambiguous DILI-concern | – | –
CCN(CC)CCN1C(=O)CN=C(c2ccccc2F)c2cc(Cl)ccc21 [flurazepam] | +VE | vLess-DILI-Concern | – | –
CO[C@H]1O[C@H](COS(=O)(=O)O)[C@@H](O[C@@H]2O[C@@H](C(=O)O)[C@@H](O[C@H]3O[C@H](COS(=O)(=O)O)[C@@H](O[C@@H]4O[C@H](C(=O)O)[C@@H](O[C@H]5O[C@H](COS(=O)(=O)O)[C@@H](O)[C@H](O)[C@H]5NS(=O)(=O)O)[C@H](O)[C@H]4O)[C@H](OS(=O)(=O)O)[C@H]3NS(=O)(=O)O)[C@H](O)[C@H]2OS(=O)(=O)O)[C@H](O)[C@H]1NS(=O)(=O)O [fondaparinux sodium] | +VE | vLess-DILI-Concern | – | –
CC(C)CN(C[C@@H](OP(=O)(O)O)[C@H](Cc1ccccc1)NC(=O)O[C@H]1CCOC1)S(=O)(=O)c1ccc(N)cc1 [fosamprenavir] | -VE | Ambiguous DILI-concern | – | –

SMILES | DILI +VE (5-8), DILI -VE (-4) [1] | DILI severity category [2] | DILI +VE (5-8), DILI -VE (-4) (in vivo) | DILI severity category (in vivo)
C[C@@H](O[C@H]1OCCN(Cc2nc(O)n(P(=O)(O)O)n2)[C@H]1c1ccc(F)cc1)c1cc(C(F)(F)F)cc(C(F)(F)F)c1 [fosaprepitant] | -VE | Ambiguous DILI-concern | – | –
C[C@@H]1O[C@@H]1P(=O)(O)O [fosfomycin] | +VE | vLess-DILI-Concern | – | –
CCC(=O)O[C@@H](O[P@](=O)(CCCCc1ccccc1)CC(=O)N1C[C@H](C2CCCCC2)C[C@H]1C(=O)O)C(C)C [fosinopril] | +VE | vLess-DILI-Concern | – | –
O=C1NC(c2ccccc2)(c2ccccc2)C(=O)N1COP(=O)(O)O [fosphenytoin] | +VE | vMost-DILI-Concern | – | –
CC(C)c1cccc(C(C)C)c1OCOP(=O)(O)O [fospropofol] | +VE | vLess-DILI-Concern | – | –
CN[C@@H]1CCc2[nH]c3ccc(C(N)=O)cc3c2C1 [frovatriptan] | -VE | vNo-DILI-Concern | – | –
C[C@]12CC[C@@H]3c4ccc(O)cc4C[C@@H](CCCCCCCCC[S+]([O-])CCCC(F)(F)C(F)(F)F)[C@H]3[C@@H]1CC[C@@H]2O (stereo partly shown) [fulvestrant] | -VE | Ambiguous DILI-concern | – | –
CNC[C@H](O)[C@@H](O)[C@H](O)[C@H](O)CO.CNC[C@H](O)[C@@H](O)[C@H](O)[C@H](O)CO.O=C([O-])CN(CCN(CC(=O)[O-])CC(=O)O)CCN(CC(=O)O)C(COCc1ccccc1)C(=O)[O-].[Gd+3] (stereo not shown) [gadobenate dimeglumine] | – | – | -VE | vNo-DILI-Concern
CNC(=O)CN(CCN(CCN(CC(=O)[O-])CC(=O)NC)CC(=O)[O-])CC(=O)[O-].[Gd+3] [gadodiamide] | – | – | -VE | Ambiguous DILI-concern
O=C([O-])CN(CCN(CC(=O)[O-])CC(COP(=O)([O-])OC1CCC(c2ccccc2)(c2ccccc2)CC1)N(CC(=O)[O-])CC(=O)[O-])CC(=O)[O-].[Gd+3].[Na+].[Na+].[Na+] (stereo not shown) [gadofosveset trisodium] | – | – | -VE | vNo-DILI-Concern
CNC[C@H](O)[C@@H](O)[C@H](O)[C@H](O)CO.CNC[C@H](O)[C@@H](O)[C@H](O)[C@H](O)CO.O=C([O-])CN(CCN(CC(=O)[O-])CC(=O)O)CCN(CC(=O)[O-])CC(=O)O.[Gd+3] [gadopentetate dimeglumine] | – | – | -VE | vNo-DILI-Concern
CC(O)CN1CCN(CC(=O)[O-])CCN(CC(=O)[O-])CCN(CC(=O)[O-])CC1.[Gd+3] (stereo not shown) [gadoteridol] | – | – | -VE | vNo-DILI-Concern
COCCNC(=O)CN(CCN(CCN(CC(=O)[O-])CC(=O)NCCOC)CC(=O)[O-])CC(=O)[O-].[Gd+3] [gadoversetamide] | – | – | -VE | vNo-DILI-Concern
O=[N+]([O-])[O-].O=[N+]([O-])[O-].O=[N+]([O-])[O-].[Ga+3] [gallium nitrate] | -VE | Ambiguous DILI-concern | – | –
O=C(O)CCCO [gamma hydroxybutyric acid] | -VE | vNo-DILI-Concern | – | –
CCN=C(NCC)NCCCC[C@H](NC(=O)[C@H](CC(C)C)NC(=O)[C@@H](CCCCNC(=NCC)NCC)NC(=O)[C@H](Cc1ccc(O)cc1)NC(=O)[C@H](CO)NC(=O)[C@@H](Cc1cccnc1)NC(=O)[C@@H](Cc1ccc(Cl)cc1)NC(=O)[C@@H](Cc1ccc2ccccc2c1)NC(C)=O)C(=O)N1CCC[C@H]1C(=O)N[C@H](C)C(N)=O [ganirelix acetate] (Ac-[d2Nal][dPhe(4-Cl)][d3Pal]SY[d(hArg(Et2))]L[hArg(Et2)]P[dA]-NH2) | – | – | -VE | vNo-DILI-Concern
Nc1ccn([C@@H]2O[C@H](CO)[C@@H](O)C2(F)F)c(=O)n1 [gemcitabine] | +VE | vMost-DILI-Concern | – | –
CC(C)C[C@H](NC(=O)[C@@H](COC(C)(C)C)NC(=O)[C@H](Cc1ccc(O)cc1)NC(=O)[C@H](CO)NC(=O)[C@H](Cc1c[nH]c2ccccc12)NC(=O)[C@H](Cc1cnc[nH]1)NC(=O)[C@@H]1CCC(=O)N1)C(=O)N[C@@H](CCCNC(=N)N)C(=O)N1CCC[C@H]1C(=O)NNC(N)=O [goserelin] | -VE | Ambiguous DILI-concern | – | –
CN1C2CCCC1CC(NC(=O)c1nn(C)c3ccccc13)C2 (stereo not shown) [granisetron] | -VE | Ambiguous DILI-concern | – | –
N=C(N)NC(=O)Cc1c(Cl)cccc1Cl [guanfacine] | -VE | Ambiguous DILI-concern | – | –
N=C(N)N [guanidine] | – | – | -VE | Ambiguous DILI-concern
CCCCCCCCCC(=O)OC1(c2ccc(Cl)cc2)CCN(CCCC(=O)c2ccc(F)cc2)CC1 [haloperidol decanoate] | -VE | Ambiguous DILI-concern | – | –
NCCc1cnc[nH]1.O=P(O)(O)O.O=P(O)(O)O [histamine diphosphate] | – | – | -VE | vNo-DILI-Concern
